Laboratory results reported in patent US8835389B2, “Use of calcitonin for the treatment of RA” (priority 2005, dated 2014).
No end group written: not given here.

Key:
[1] = Water solubility of delivery agents
[2] = tested on: Collagen Induced Arthritis model (CIA-model) in lewis rats; experiment: Collagen Induced Arthritis model (CIA-model), serum CTX-II; assay type: in vivo; conditions: day 21 after collagen injection, 50 mg/kg 5-CNAC+calcitonin 2 mg/kg twice daily, versus CIA-group
From the text: Arthritis induced in rodents by the systemic administration of type II collagen (CII) is an experimental model with many resemblances to RA, and is widely used for studying the disease processes (reviewed in Wooley P H, Chapedelaine J M. Immunogenetics of collagen-induced arthritis. Crit Rev Immunol 1987; 8: 1-22; and Trentham D E. Collagen arthritis as a relevant model for rheumatoid arthritis. Arth Rheum 1982; 25: 9116).
Upon immunization with purified CII in complete Freund's adjuvant, genetically susceptible strains of rodents develop arthritis, which is characterized by cellular and humoral immune responses to CII. […]
Animals are monitored for signs of arthritis one week post immunization on a daily basis and a clinical scoring system is adopted wherein each limb is given a clinical score on the basis of visual signs of oedema and/or erythema as follows: 0=normal, 1=slight swelling and/or erythema at the base of the paw, 2=frank oedema and erythema involving the entire paw, 2·5=pronounced oedema and erythema leading to an incapacitated limb mobility, 3=ankylosis, as previously described in Malfait A M, Butler D M, Presky D H et al., Blockade of IL-12 during the induction of collagen-induced arthritis (CIA) markedly attenuates the severity of the arthritis. […]

[3] = in vivo

O=C(O)CCCCCCCCCNC(=O)c1ccccc1O [SNAD, N-(10-[2-hydroxybenzoyl]amino)decanoic acid]
water solubility [1]: very water soluble

Calcitonin (CGNLSTCMLGTYTQDFNKFHTFPQTAIGVGAP; ends and bridges not checked; cysteine pairing not given here; UniProt P01258 85-116, looked up)
reduction of the increase in serum c-terminal telopeptide of type II collagen (serum CTX-II) [2]: 33%

O=C(O)CCCCCCCNC(=O)c1cc(Cl)ccc1O [5 CNAC, N-(5-chlorosalicyloyl)-8-aminocaprylic acid]
absorbed by the gastro-intestinal tract [3]: greater than 90%
